Data published in the supplement of paper PMC10307832.

What was measured:
Assay in all cases: relative viability (nuclei count vs DMSO), 5 days (fraction); higher = more cells survive
RO-3306 + Vorinostat = compound: C1=CC2=C(C=CC(=C2)C=C3C(=O)NC(=NCC4=CC=CS4)S3)N=C1 [RO-3306] + O=C(CCCCCCC(=O)Nc1ccccc1)NO [Vorinostat] (partner 1 µM)
Summary of the method: (§1)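 A single step with final 0.05% Triton X-100, 1% formaldehyde and 1 ug/ml Hoechst fixed the cells and stained nuclei 5 days after treatment. Lung cancer cell lines in 1536-well plates had been treated by pin tool the day after seeding with one drug alone or a fixed anchor-drug dose plus five library-drug doses (not always all listed) in √10 steps, and nuclei were counted on 4× images. Relative viability is the ratio of nuclei in treated wells to nuclei in vehicle wells, taken as the median of duplicate plates.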

RO-3306 + AZD7762 = compound: C1=CC2=C(C=CC(=C2)C=C3C(=O)NC(=NCC4=CC=CS4)S3)N=C1 [RO-3306] + NC(=O)Nc1cc(-c2cccc(F)c2)sc1C(=O)N[C@H]1CCCNC1 [AZD7762] (partner 0.2 µM)
Summary of the method: as §1

RO-3306 + Alpelisib = compound: C1=CC2=C(C=CC(=C2)C=C3C(=O)NC(=NCC4=CC=CS4)S3)N=C1 [RO-3306] + Cc1nc(NC(=O)N2CCC[C@H]2C(N)=O)sc1-c1ccnc(C(C)(C)C(F)(F)F)c1 [Alpelisib] (partner 2 µM)
Summary of the method: as §1

[1] = compound: O=S(=O)(c1ccccc1)N(CC(F)(F)F)c1ccc(C(O)(C(F)(F)F)C(F)(F)F)cc1 + CCNC(=O)c1noc(-c2cc(C(C)C)c(O)cc2O)c1-c1ccc(CN2CCOCC2)cc1 [Luminespib] (partner 0.01 µM)
Summary of the method: as §1

Cell Line	relative viability (RO-3306 + Vorinostat; first compound 0.01 µM)	relative viability (RO-3306 + Vorinostat; first compound 0.03162 µM)	relative viability (RO-3306 + Vorinostat; first compound 0.1 µM)	relative viability (RO-3306 + Vorinostat; first compound 0.3162 µM)	relative viability (RO-3306 + Vorinostat; first compound 1 µM)	relative viability (RO-3306 + AZD7762; first compound 0.01 µM)	relative viability (RO-3306 + AZD7762; first compound 0.03162 µM)	relative viability (RO-3306 + AZD7762; first compound 0.1 µM)	relative viability (RO-3306 + AZD7762; first compound 0.3162 µM)	relative viability (RO-3306 + AZD7762; first compound 1 µM)	relative viability (RO-3306 + Alpelisib; first compound 0.01 µM)	relative viability (RO-3306 + Alpelisib; first compound 0.03162 µM)	relative viability (RO-3306 + Alpelisib; first compound 0.1 µM)	relative viability (RO-3306 + Alpelisib; first compound 0.3162 µM)	relative viability (RO-3306 + Alpelisib; first compound 1 µM)	relative viability ([1]; first compound 0.8 µM)	relative viability ([1]; first compound 2.53 µM)	relative viability ([1]; first compound 8 µM)
H3255	0.788	0.743	0.802	0.826	0.819	0.897	0.774	0.856	0.888	0.848	0.576	0.59	0.632	0.628	0.6	0.734	0.753	0.767
ABC-1	1.21	1	1.03	1.13	0.781	0.906	0.812	0.823	0.963	0.813	1.07	1.07	1.22	0.939	1.22	0.746	0.571	0.519
LXF-289	0.789	0.807	0.695	0.749	0.744	1.08	0.993	1.17	0.973	1.22	1.08	1.01	1.03	1.05	1.05	0.858	0.559	0.641
NCI-H1975	0.608	0.624	0.685	0.701	0.69	0.762	0.671	0.712	0.641	0.653	0.882	0.507	0.615	0.675	0.67	0.205	0.201	0.311
LCLC-97TM1	0.804	0.546	0.694	0.789	1.1	0.258	–	0.197	0.31	0.26	–	0.243	0.243	0.27	0.179	0.716	0.744	0.682
IA-LM	1.09	0.519	0.973	0.947	0.749	–	–	–	–	–	0.895	0.56	0.725	0.708	0.948	–	–	–
HCC-15	0.923	0.712	0.898	0.854	0.773	1.25	1.08	1.12	1.21	1.34	1.03	0.815	0.869	0.887	0.855	0.299	0.233	0.245
NCI-H647	0.708	0.512	0.371	0.6	0.473	0.519	0.339	0.325	0.515	0.31	1.76	0.954	1.09	1.16	1.28	0.275	0.19	0.233
NCI-H1993	0.82	0.707	0.751	0.822	0.716	0.697	0.756	0.772	0.77	0.684	–	0.657	0.712	0.589	0.666	0.874	0.577	0.721
COR-L23	0.51	0.412	0.489	0.394	0.344	–	–	–	–	–	0.898	–	0.866	0.631	0.75	0.953	0.728	0.628
